Several values for one entry are separate records, joined by “and”; a condition that tells them apart may be missing. Identical values can stand only once. Toxic doses and inconclusive results are not listed.
Test system: BDF1 mice, P388 leukemia ip, median survival T/C
Assay: NCI In Vivo Anticancer Drug Screen. Data for tumor model P388 Leukemia (intraperitoneal) in B6D2F1 (BDF1) mice
Conditions: endpoint: median survival time, higher = longer survival
Summary of the method: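 Compound-treated tumour-bearing mice were compared with vehicle-treated controls. Survival was recorded, and the value is the treated-group measurement divided by the control-group measurement (T/C).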

## O=NN(CCCl)C(=O)N[C@@H]1CCCC[C@H]1NC(=O)N(CCCl)N=O
dose: 0.12 mg/kg/injection, schedule: Q04DX003 (ip), vehicle: Klucel (hydroxypropylcellulose) (HPC)
  T/C: 120 % of control
dose: 0.18 mg/kg/injection, schedule: Q01DX009 (ip), vehicle: Klucel (hydroxypropylcellulose) (HPC)
  T/C: 100 % of control
dose: 0.25 mg/kg/injection, schedule: Q04DX003 (ip), vehicle: Klucel (hydroxypropylcellulose) (HPC)
  T/C: 100 % of control
dose: 0.37 mg/kg/injection, schedule: Q01DX009 (ip), vehicle: Klucel (hydroxypropylcellulose) (HPC)
  T/C: 88 % of control
dose: 0.5 mg/kg/injection, schedule: Q04DX003 (ip), vehicle: Klucel (hydroxypropylcellulose) (HPC)
  T/C: 108 % of control
dose: 0.75 mg/kg/injection, schedule: Q01DX009 (ip), vehicle: Klucel (hydroxypropylcellulose) (HPC)
  T/C: 88 % of control
dose: 1.0 mg/kg/injection, schedule: Q04DX003 (ip), vehicle: Klucel (hydroxypropylcellulose) (HPC)
  T/C: 150 % of control
dose: 1.5 mg/kg/injection, schedule: Q01DX009 (ip), vehicle: Klucel (hydroxypropylcellulose) (HPC)
  T/C: 88 % of control
dose: 2.0 mg/kg/injection, schedule: Q04DX003 (ip), vehicle: Klucel (hydroxypropylcellulose) (HPC)
  T/C: 113 % of control
dose: 3.0 mg/kg/injection, schedule: Q04DX003 (ip), vehicle: Klucel (hydroxypropylcellulose) (HPC)
  T/C: 109 % of control
dose: 4.5 mg/kg/injection, schedule: Q01DX009 (ip), vehicle: Klucel (hydroxypropylcellulose) (HPC)
  T/C: 191 % of control
dose: 6.0 mg/kg/injection, schedule: Q01DX009 (ip), vehicle: Klucel (hydroxypropylcellulose) (HPC)
  T/C: 172 % of control
dose: 6.0 mg/kg/injection, schedule: Q04DX003 (ip), vehicle: Klucel (hydroxypropylcellulose) (HPC)
  T/C: 150 % of control and 162 % of control and 172 % of control
dose: 7.0 mg/kg/injection, schedule: Q01DX009 (ip), vehicle: Klucel (hydroxypropylcellulose) (HPC)
  T/C: 233 % of control
dose: 9.0 mg/kg/injection, schedule: Q04DX003 (ip), vehicle: Klucel (hydroxypropylcellulose) (HPC)
  T/C: 213 % of control
dose: 11.0 mg/kg/injection, schedule: Q01DX009 (ip), vehicle: Klucel (hydroxypropylcellulose) (HPC)
  T/C: 237 % of control and 250 % of control
dose: 12.0 mg/kg/injection, schedule: Q01DX009 (ip), vehicle: Klucel (hydroxypropylcellulose) (HPC)
  T/C: 250 % of control
dose: 12.0 mg/kg/injection, schedule: Q04DX003 (ip), vehicle: Klucel (hydroxypropylcellulose) (HPC)
  T/C: 159 % of control
dose: 12.5 mg/kg/injection, schedule: Q01DX009 (ip), vehicle: Klucel (hydroxypropylcellulose) (HPC)
  T/C: 155 % of control
dose: 13.0 mg/kg/injection, schedule: Q04DX003 (ip), vehicle: Klucel (hydroxypropylcellulose) (HPC)
  T/C: 250 % of control and 204 % of control
dose: 16.5 mg/kg/injection, schedule: Q01DX009 (ip), vehicle: Klucel (hydroxypropylcellulose) (HPC)
  T/C: 250 % of control
dose: 20.0 mg/kg/injection, schedule: Q04DX003 (ip), vehicle: Klucel (hydroxypropylcellulose) (HPC)
  T/C: 260 % of control and 272 % of control
dose: 25.0 mg/kg/injection, schedule: Q01DX009 (ip), vehicle: Klucel (hydroxypropylcellulose) (HPC)
  T/C: 272 % of control and 280 % of control
dose: 25.0 mg/kg/injection, schedule: Q01DX009 (ip), vehicle: saline
  T/C: 250 % of control
dose: 25.0 mg/kg/injection, schedule: Q04DX003 (ip), vehicle: Klucel (hydroxypropylcellulose) (HPC)
  T/C: 222 % of control
dose: 30.0 mg/kg/injection, schedule: Q04DX003 (ip), vehicle: Klucel (hydroxypropylcellulose) (HPC)
  T/C: 250 % of control and 272 % of control and 300 % of control
dose: 35.0 mg/kg/injection, schedule: Q01DX009 (ip), vehicle: saline
  T/C: 91 % of control
dose: 40.0 mg/kg/injection, schedule: Q04DX003 (ip), vehicle: Klucel (hydroxypropylcellulose) (HPC)
  T/C: 300 % of control
dose: 44.0 mg/kg/injection, schedule: Q04DX003 (ip), vehicle: Klucel (hydroxypropylcellulose) (HPC)
  T/C: 250 % of control
dose: 50.0 mg/kg/injection, schedule: Q04DX003 (ip), vehicle: Klucel (hydroxypropylcellulose) (HPC)
  T/C: 272 % of control
dose: 67.0 mg/kg/injection, schedule: Q04DX003 (ip), vehicle: Klucel (hydroxypropylcellulose) (HPC)
  T/C: 241 % of control and 250 % of control and 300 % of control
dose: 100.0 mg/kg/injection, schedule: Q04DX003 (ip), vehicle: Klucel (hydroxypropylcellulose) (HPC)
  T/C: 260 % of control and 150 % of control and 195 % of control
dose: 150.0 mg/kg/injection, schedule: Q04DX003 (ip), vehicle: Klucel (hydroxypropylcellulose) (HPC)
  T/C: 95 % of control
dose: 200.0 mg/kg/injection, schedule: Q04DX003 (ip), vehicle: Klucel (hydroxypropylcellulose) (HPC)
  T/C: 86 % of control and 122 % of control

## CC1CC(C)(O)C2C3(C)CCCC2(COC3=O)C12CCC1(CCOC1=O)O2 (configuration not stated)
dose: 2.5 mg/kg/injection, schedule: Q01DX009 (ip), vehicle: Klucel (hydroxypropylcellulose) (HPC)
  T/C: 88 % of control
dose: 5.0 mg/kg/injection, schedule: Q01DX009 (ip), vehicle: Klucel (hydroxypropylcellulose) (HPC)
  T/C: 106 % of control
dose: 10.0 mg/kg/injection, schedule: Q01DX009 (ip), vehicle: Klucel (hydroxypropylcellulose) (HPC)
  T/C: 95 % of control

Reference: PubChem BioAssay AID328 (DTP/NCI, 2004)
